Laboratory results as given in PMC6567057, “Pharmacokinetic, metabolic stability, plasma protein binding and CYP450s inhibition/induction assessment studies of N-(2-pyridylmethyl)-2-hydroxiymethyl-1-pyrrolidinyl-4-(3-chloro-4-methoxy-benzylamino)-5-pyrimidine-carboxamide as potential type 5 phosphodiesterase inhibitors” (Animal Cells and Systems, 2019).

Key:
[1] = In vitro metabolic stability in dog liver microsomes; assay type: in vitro ADME; conditions: for remaining at 1 h, 1 µM: liver microsomes, pH 7.4, dog liver microsomes, 60 min, read-out: percent remaining
Protocol: (§1) The phosphate buffer (pH 7.4, 100 mM) and (300 mM) were prepared in deionized water. NADP and IA were dissolved in phosphate buffer and MgCl2 solution and then added 20 μL IDH (18 units/mg protein) and mixed. NHPPC (1 mM) and positive control drug were prepared by dilution using DMSO and then the NHPPC and positive control drug working solution (50 μM) were obtained by dilution using methanol: H2O (1:1, v/v) mixture. Pooled human, rat and dog liver microsomes were added to phosphate buffer pH7.4 to a concentration 20 mg/mL. NHPPC was incubated with liver microsomes. The incubation solution of the final reaction conditions contained 50 mM potassium phosphate buffer (pH 7.4), 0.5 mg protein/mL microsomes, 3 mM MgCl2, 2 mM NADPH and 1 μM NHPPC or positive control drug in a final volume of 100 μL. In sample and positive control groups, NADPH was added into the incubation solutions. In the negative control group, water (the replacement of NADPH) was added into the incubation solutions. Samples were incubated aerobically in a shaking water bath at 37°C and the reaction was terminated by adding 300 μL of ice cold acetonitrile (contain 100 ng/mL IS) at different interval 0, 5, 10, 20, 30 and 60 min. While positive control and negative control were incubated aerobically in a shaking water bath at 37°C for 0 and 60 min, respectively. NHPPC and control concentrations were determined by LC-MS/MS at each time point (n = 3). Calculation of t1/2 and CLint was performed by using following equations, where K is the elimination rate constant (min^−1) and QH is hepatic blood flow (mL/min/kg). t1/2=0.693/KCLint,in vitro=VD×KVD=Volume of reaction mixture(mL)/mg of protein per reation.
(§2) Hepatic intrinsic clearance was estimated by using the scaling factors and calculated by using the following equation (Lave et al. [1997]). CLint,in vivo=CLint×mg microsomal protein per liver×g liver per kg body weight, Cint,H=CLint,in vivo×QH/CLint,in vivo+QH,EH=CLint,H/QH.

[2] = In vitro metabolic stability in human liver microsomes; assay type: in vitro ADME; conditions: for remaining at 1 h, 1 µM: liver microsomes, pH 7.4, human liver microsomes, 60 min, read-out: percent remaining
Protocol: as §1, §2

CYP3A4 = experiment: CYP induction in human primary hepatocytes; assay type: in vitro ADME; conditions: CYP3A4, human primary hepatocytes of three batches, 0.10, 1.00 or 10.0 μM, 72 h
Protocol: (§3) The hepatocytes were seeded on a collagenated 48-well plate for 24 h in an incubator at 37°C (moisturized, with 5% CO2). The hepatocytes were then incubated with the test article thereafter. The stock solutions of omeprazole (100 mM), rifampin (20.0 mM), testosterone (200 mM), phenacetin (100 mM) and NHPPC (50.0 mM) were prepared in DMSO, and were diluted using the cell culture medium. The DMSO content in the final solutions was 0.10%, the medium containing 0.10% DMSO was used as the blank control. The cells were co-incubated with the positive control inducers or NHPPC for 72 h and during the incubation the medium was changed every day. After the incubation, the medium was discarded and replaced with 200 μL phenol red-free culture medium containing 100 μM phenacetin (CYP1A2 probe substrate) or 200 μM testosterone (CYP3A4 probe substrate). After the incubation in the presence of the probe substrates at 37°C for 1 h, the supernatants were collected and stored at −80°C until analysis. All incubations were also conducted in triplicate. The generated metabolites of the CYP1A2 and CYP3A4 probe substrates were analyzed by LC/MS/MS methods. The induction effects of the positive control inducers and NHPPC were assessed by the amount of metabolites formed in the induced and uninduced hepatocytes. The percent induction of positive control was calculated using the following equation. […]

CYP1A2 = experiment: CYP induction in human primary hepatocytes; assay type: in vitro ADME; conditions: CYP1A2, human primary hepatocytes of three batches, 0.10, 1.00 or 10.0 μM, 72 h
Protocol: as §3

rat plasma proteins = experiment: Plasma protein binding by equilibrium dialysis (rat); assay type: in vitro ADME, Sprague–Dawley rat; conditions: rat plasma, mean of 0.2 and 1 µM
Protocol: (§4) The phosphate buffer (100 mM) and sodium hydroxide solution (1.0 M) were prepared in deionized water. […] PPB was determined by equilibrium dialysis method. An aliquot (150 μL) of NHPPC spiked plasma and phosphate buffer (pH 7.4) was added into the donor side and the receiver side of each designated well. The plate was covered with adhesive sealing film to prevent evaporation and placed in a water-bath shaker kept at 37°C for 6 h with a rate of 50 rpm. […] At the end of 6 h, aliquots were taken from each side of each well (n = 3) and kept in a −20°C freezer prior to analysis. The stability, device recovery and PPB were calculated using the following equations: Remaining at 6 h (%)=C6h/C0h×100%, Device recovery (%)=CDonor+CReceiver/C6h×100%, PPB (%)=CDonor−CReceiver/CDonor×100%.

[3] = as above; assay type: in vitro ADME, Sprague–Dawley rat; conditions: Sprague-Dawley
Protocol: as §4

[4] = Stability in plasma, 6 h incubation at 37°C (dog); assay type: in vitro ADME; conditions: beagle
Protocol: as §4

remaining at 1 h, 1 µM ([1]; dog, in the presence of NADPH, 1 μM): 0.8%
remaining at 1 h, 1 µM ([1]; dog, without NADPH regenerating system): 98.4%
CLH ([1]; dog, scaled from liver microsomes): 25.3 mL/min/kg
half-life at 1 µM ([1]; liver microsomes (pooled), pH 7.4, dog liver microsomes): 8.2 min
microsomal CLint at 1 µM ([1]; liver microsomes (pooled), pH 7.4, dog liver microsomes, read-out: CLint, ivtro): 120 µL/min/mg
k el at 1 µM ([1]; pH 7.4, dog liver microsomes, read-out: Ke (converted)): 0.0014 s⁻¹
remaining at 1 h, 1 µM ([2]; human, in the presence of NADPH, 1 μM): 42%
remaining at 1 h, 1 µM ([2]; human, without NADPH regenerating system): 99.4%
ranking for clearance ([2]; human, ranking criteria of Houston 1994, Kerns and Di 2008): middle clearance
CLH ([2]; human, scaled from liver microsomes): 9.80 mL/min/kg
half-life at 1 µM ([2]; liver microsomes (pooled), pH 7.4, human liver microsomes): 46.2 min
microsomal CLint at 1 µM ([2]; liver microsomes (pooled), pH 7.4, human liver microsomes, read-out: CLint, ivtro): 21.4 µL/min/mg
k el at 1 µM ([2]; liver microsomes (pooled), pH 7.4, human liver microsomes, read-out: Ke (converted)): 0.00025 s⁻¹
percent induction of positive control (CYP3A4): less than 40%
percent induction of positive control (CYP1A2): less than 40%
Mean PPB % (rat plasma proteins): 96.2 ± 0.18%
recovery at 6 h, 0.2 μM ([3]; pH 7.4, rat plasma, equilibrium dialysis, n = 3, read-out: Mean device recovery %): 98.6 ± 0.13%
fraction unbound at 6 h, 0.2 µM ([3]; rat, plasma, pH 7.4, rat plasma, 0.2 µM, equilibrium dialysis 6 h, read-out: Mean PPB % (converted)): 0.043
fraction unbound at 6 h, 1 µM ([3]; rat, plasma, pH 7.4, rat plasma, 1 µM, equilibrium dialysis 6 h, read-out: Mean PPB % (converted)): 0.033
fraction unbound at 6 h ([3]; rat, plasma, pH 7.4, rat plasma, mean of 0.2 and 1 µM, read-out: Mean PPB %): < 0.05
remaining at 6 h, 0.2 µM ([4]; 0.2 µM, n = 3, read-out: Mean drug remaining %): 99.6 ± 0.53%
remaining at 6 h, 1 µM ([4]; 1 µM, n = 3, read-out: Mean drug remaining %): 100.4 ± 0.98%
remaining at 6 h ([4]; mean of 0.2 and 1 µM, read-out: Mean drug remaining %): 100 ± 1.24%
SMILES: COc1ccc(CNc2nc(N3CCC[C@H]3CO)ncc2C(=O)NCc2ccccn2)cc1Cl [NHPPC, N-(2-pyridylmethyl)-2-hydroxiymethyl-1-pyrrolidinyl-4-(3-chloro-4-methoxy-benzylamino)-5-pyrimidine-carboxamide]
